Measurements published in patent US7858617B2, “2-oxy-benzoxazinone derivatives for the treatment of obesity” (Norgine B.V., priority 1999, dated 2010).

Assays:
Format in all cases: biochemical
human pancreatic lipase = molecular target: T1, human pancreatic lipase (Homo sapiens, UniProt P16233); assay: Lipase activity, quinine diimine dye calorimetric assay (Sigma Lipase-PS); conditions: at 500 nM; read-out: inhibited % of the pancreatic lipase activity
T1 sequence (P16233 17-465): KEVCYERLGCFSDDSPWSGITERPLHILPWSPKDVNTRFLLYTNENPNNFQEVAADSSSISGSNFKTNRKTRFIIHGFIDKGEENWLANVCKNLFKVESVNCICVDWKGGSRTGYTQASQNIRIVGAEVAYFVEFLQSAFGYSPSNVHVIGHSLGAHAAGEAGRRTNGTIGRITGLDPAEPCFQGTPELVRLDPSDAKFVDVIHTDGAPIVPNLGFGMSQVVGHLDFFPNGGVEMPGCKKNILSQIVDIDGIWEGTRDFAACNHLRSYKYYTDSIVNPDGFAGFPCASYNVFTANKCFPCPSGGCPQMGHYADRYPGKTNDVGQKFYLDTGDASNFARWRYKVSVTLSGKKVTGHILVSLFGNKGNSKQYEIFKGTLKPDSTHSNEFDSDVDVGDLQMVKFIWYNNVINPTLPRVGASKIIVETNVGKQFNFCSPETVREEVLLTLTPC
Protocol: Measurement of Lipase Activity Using a Quinine Diimine Dye Calorimetric Assay
The inhibitory activity of the selected compounds to pancreatic lipase was measured in the following assay available from Sigma Ltd (Lipase-PS™, catalog number 805-A):
The glycerol released from the action of pancreatic and monoglyceride lipase was oxidised to release H2O2. The peroxidase reaction step then produces a quinine dye which is pink in colour and absorbs light at a wavelength of 550 nm.
Individual test compounds were dissolved in DMSO (dimethyl sulphoxide) at 10 mM. DMSO was used to avoid any problems with compounds being water-insoluble. For individual compounds, the IC50 (concentration at which lipase activity is inhibited to one half of the maximum) was calculated by measuring the inhibitory activity from log-dose response curves using a range of inhibitor concentrations.
A range of compounds was assayed in the quinine diimine dye calorimetric assay which provides a rapid method to measure lipase inhibitory activity.

Porcine trypsin = molecular target: T2, Porcine trypsin (Sus scrofa, UniProt P00761); assay: Measurement of trypsin activity; conditions: at 500 nM; read-out: inhibited % of the trypsin activity
T2 construct: purchased Boehringer
T2 sequence (P00761 9-231): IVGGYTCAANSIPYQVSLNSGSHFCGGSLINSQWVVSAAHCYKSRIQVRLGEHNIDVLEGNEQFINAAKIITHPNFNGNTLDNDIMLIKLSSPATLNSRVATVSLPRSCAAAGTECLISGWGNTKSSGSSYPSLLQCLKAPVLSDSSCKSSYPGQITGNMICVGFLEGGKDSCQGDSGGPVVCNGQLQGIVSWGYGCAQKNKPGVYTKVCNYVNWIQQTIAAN
Protocol: Measurement of Trypsin Activity
Porcine trypsin (Boehringer) was dissolved at a concentration of 1 mg/ml in 100 mM MOPS (3-[N-Morpholino]propanesulphonic acid) pH 7.3 containing 2 mM CaCl2. Prior to use, the enzyme was diluted 500 times to give a final concentration of 2 μg/ml.
Selected compounds were routinely stored as 5 mM stock solutions dissolved in DMSO (Dimethylsulphoxide) at −20° C. For the assay, aliquots were defrosted and a series of dilutions (×100, ×200, ×1,000, ×2,000, ×10,000, ×20,000 and ×100,000) made in 100 mM MOPS pH 7.3 containing 2 mM CaCl2. The substrate Bz-Phe-Val-Arg-pNA (Benzoyl-phenylalanyl-valyl-arginine-p-nitroanilide) was dissolved in DMSO to give a 10 mM solution. Immediately prior to use, the substrate was diluted to 0.3 mM (30 μl/ml) in 100 mM MOPS containing […].
(§1) The assay was set up in triplicate in a 96 well ELISA plate. 10 μl 2 μg/ml trypsin, 26 μl diluted inhibitor and 190 μl substrate were added sequentially. The plates were then incubated at 37° C. in a BioRad Benchmark Microplate Reader. The rate of release of p-nitroaniline was measured at […] over 10 minutes relative to that of the enzyme without inhibitor.

Bovine Chymotrypsin = molecular target: T3, Bovine Chymotrypsin (Bos taurus, UniProt P00766); assay: Measurement of chymotrypsin activity; conditions: at 500 nM; read-out: inhibited % of the chymotrypsin activity
T3 construct: purchased Sigma C4129
Protocol: Measurement of Chymotrypsin Activity
Bovine Chymotrypsin (Sigma Type 11 Cat. No. C4129) was dissolved at a concentration of 1 mg/ml in 100 mM Tris pH 7.8. Prior to use, the enzyme was diluted 20 fold immediately before use, with the same buffer.
Selected compounds were routinely stored as 5 mM stock solutions dissolved in DMSO (Dimethylsulphoxide) at −20° C. For the assay, aliquots were defrosted and a series of dilutions (×20, ×100, ×200, ×1,000, ×2,000, ×10,000, ×20,000 and ×100,000) made in 100 mM Tris pH 7.8. The substrate H-Ala-Ala-Phe-p-nitroanilide (H-alanyl-alanyl-phenylalanine-p-nitroanilide) (Bachem Cat. No. L-1095) was dissolved in DMSO to give a 10 mM stock and stored at 4° C. until use. Immediately prior to use, the substrate was diluted to 0.3 mM final concentration (30 μl/ml) just before use.
as §1, with “50” for “2”, “chymotrypsin, 50” for “trypsin, 26”

inhibition at 0.5 µM (human pancreatic lipase): 98.7%
inhibition at 0.5 µM (Porcine trypsin): 4%
inhibition at 0.5 µM (Bovine Chymotrypsin): 12.5%
Compound: CCCCCCCCCCCCCCCCOc1nc2ccc(C)cc2c(=O)o1 [Compound 18, 2-Hexadecyloxy-6-methyl-4H-3,1-benzoxazin-4-one]
